Data set [1] concerns the target T1, human S1P3 receptor (Homo sapiens, UniProt Q99500).
T1 construct: cell line established at Solvay Pharmaceuticals; host or cells: CHO K1 (CHO/Gα16/AEQ/h-S1P3)
The experiment in a line: In vitro functional activity (agonism), CHO-human-S1P3-Aequorin assay. It counts as cell-based. The conditions noted are these: read-out: S1P3 pEC50 (converted). An excerpt:
In Vitro Functional Activity (Agonism) on Human S1P3 Receptors
The CHO-human-S1P3-Aeqorin assay (CHO/Gα16/AEQ/h-S1P3) was established at Solvay Pharmaceuticals. The plasmid DNA coding for the S1P3 receptor (accession number in GenBank NM_005226 was purchased from UMR cDNA resource Centre (Rolla, Mo.). The pcDNA3.1/hS1P3 construct carrying the mitochondrially targeted apo-Aeqorin and Gα16 protein was transfected in CHO K1 cell-line.
(§1) Human-S1P3-Aequorin cells express mitochondrial targeted apo-Aequorin. Cells have to be loaded with coelanterazine, in order to reconstitute active Aequorin. After binding of agonists to the human S1P3 receptor the intracellular calcium concentration increases and binding of calcium to the apo-Aequorin/coelenterazine complex leads to an oxidation reaction of coelenterazine, which results in the production of apo-Aequorin, coelenteramide, CO2 and light (λmax 469 nm). This luminescent response is dependent on the agonist concentration. Luminescence is measured using the MicroBeta Jet (Perkin Elmer). Agonistic effects of compounds are expressed as pEC50. Compounds were tested at a 10 points half log concentration range, and 3 independent experiments were performed in single point's measurements.

The target of data set [2] is T2, human S1P5 receptor (Homo sapiens, UniProt Q9H228).
T2 construct: host or cells: CHO (AequoScreen recombinant cell line, co-expressing mitochondrially targeted apo-aequorin)
Description: In vitro functional activity (agonism), CHO-human-S1P5-Aequorin assay. It is filed as cell-based. As to conditions: read-out: S1P5 pEC50 (converted).
Source text: In Vitro Functional Activity (Agonism) on Human S1P5 Receptors
as §1, with “The CHO-human-S1P5-Aeqorin assay was bought from Euroscreen, Brussels (Euroscreen, Technical dossier, Human Lysophospholid S1P5 (Edg8) receptor, DNA clone and CHO AequoScreen™ recombinant cell-line, catalog no: ES-593-A, September 2006). Human-S1P5-Aequorin” for “Human-S1P3-Aequorin”, “S1P5” for “S1P3”

In data set [3] the target is T3, human S1P1 (Homo sapiens, UniProt P21453).
T3 construct: host or cells: CHO-K1
Description: In vitro functional activity (agonism), CHO-K1-human S1P1 cAMP assay. It counts as cell-based. As to conditions: read-out: S1P1 pEC50 (converted). On the procedure:
In Vitro Functional Activity (Agonism) on Human S1P1 Receptors
The CHO-K1-Human S1P1-c-AMP assay was performed at Euroscreenfast, Brussels (Euroscreen, Human S1P1 coupling Gi/o), (Edg1) receptor, catalog no: FAST-0197C, December 2009).
Recombinant CHO-K1 cells expressing human S1P1, grown to mid-log Phase in culture media without antibiotics, detached, centrifuged and re-suspended. For agonist testing cells are mixed with compound and Forskolin and incubated at room temperature. Cells are lyses and cAMP concentration are estimated, according to the manufacturer specification, With the HTRF kit from CIS-BIO International (cat no 62AM2PEB).
Agonistic effects of compounds are expressed as a percentage of the activity of the reference compound at its EC100 concentration, EC50) is calculated and results are reported as pEC50. Compounds were tested at a 10 points half log concentration range duplicated in 1 experiment.

The test system of data set [4] is C57BL/6J mice. Description: In vivo therapeutic model; T-maze spontaneous alternation. As to conditions: 12-month old male C57BL6J mice; 10 mg/kg/day p.o. for 21 days and on test day at t=-30 min. How it is done: FIG. 1 Percentage of alternation of young and old C57BL/6J male mice in the T-maze with either vehicle (control groups) or compound 34b (10 mg/kg; p.o.)
In Vivo Therapeutic Model; T-Maze
Age-related memory deficits occur in humans and rodents. Spontaneous alternation is the innate tendency of rodents to alternate free choices in a T-maze over a series of successive runs. This sequential procedure relies on working memory and is sensitive to various pharmacological manipulations affecting memory processes (Aging and the physiology of spatial memory. Barnes C. A. Neurobiol. Aging 1988:563-8; Dember W N, Fowler H. Spontaneous alternation behavior. Psychol. Bull. 1958, 55(6):412-427; Gerlai R. A new continuous alternation task in T-maze detects hippocampal dysfunction in mice. A strain comparison and lesion study. Behav Brain Res 1998 95(1):91-101).
For this study, male C57BL/6J mice of 2 months or 12 months old were used in the spontaneous alternation task in the T-maze. In short, mice were subjected to 1 session containing 15 trials, consisting of 1 “forced-choice” trial, followed by 14 “free-choice” trials. The animal was considered as entering one of the arms of the maze when all four paws are placed within this arm. […] The percentage of alternation over the 14 free-choice trials was determined for each mouse and was used as an index of working memory performance. […]

Structures can show the parent of a compound that is named as a salt.

What is called melting point is the temperature of the solid-liquid transition.

T1 sequence (Q99500 whole entry): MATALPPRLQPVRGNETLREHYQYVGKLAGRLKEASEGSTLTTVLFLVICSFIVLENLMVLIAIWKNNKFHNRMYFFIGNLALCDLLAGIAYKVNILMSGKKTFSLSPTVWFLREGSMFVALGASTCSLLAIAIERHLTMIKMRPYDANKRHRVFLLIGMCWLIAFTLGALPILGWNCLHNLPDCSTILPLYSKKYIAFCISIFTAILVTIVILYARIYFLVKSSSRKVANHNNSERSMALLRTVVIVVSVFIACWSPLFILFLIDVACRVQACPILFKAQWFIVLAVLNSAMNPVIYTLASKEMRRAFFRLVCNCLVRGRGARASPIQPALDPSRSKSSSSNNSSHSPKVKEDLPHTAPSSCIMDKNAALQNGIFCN
T3 sequence (P21453 whole entry): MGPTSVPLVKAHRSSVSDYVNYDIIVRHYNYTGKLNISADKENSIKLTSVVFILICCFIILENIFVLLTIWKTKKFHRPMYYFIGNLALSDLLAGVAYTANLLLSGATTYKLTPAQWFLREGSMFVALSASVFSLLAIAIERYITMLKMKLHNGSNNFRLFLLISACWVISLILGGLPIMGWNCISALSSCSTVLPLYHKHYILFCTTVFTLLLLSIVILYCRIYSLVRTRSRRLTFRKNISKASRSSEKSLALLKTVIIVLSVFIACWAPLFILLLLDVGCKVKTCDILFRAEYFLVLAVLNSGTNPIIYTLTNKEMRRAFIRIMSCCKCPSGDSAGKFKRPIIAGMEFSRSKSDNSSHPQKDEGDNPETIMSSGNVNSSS
T2 sequence (Q9H228 whole entry): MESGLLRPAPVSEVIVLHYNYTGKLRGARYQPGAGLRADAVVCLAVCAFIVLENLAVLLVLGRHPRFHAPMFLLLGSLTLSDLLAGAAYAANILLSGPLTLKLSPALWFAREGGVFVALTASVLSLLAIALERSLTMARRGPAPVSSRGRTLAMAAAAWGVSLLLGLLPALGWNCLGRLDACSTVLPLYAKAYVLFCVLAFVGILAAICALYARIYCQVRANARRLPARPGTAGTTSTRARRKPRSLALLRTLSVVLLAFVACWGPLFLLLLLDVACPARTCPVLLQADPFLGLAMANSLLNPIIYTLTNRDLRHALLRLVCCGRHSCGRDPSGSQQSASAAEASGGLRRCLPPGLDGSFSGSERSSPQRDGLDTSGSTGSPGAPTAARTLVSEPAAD

Turning to `CCCCCCCCOc1ccc(C2CN(CCC(=O)O)CCO2)c(C(F)(F)F)c1.Cl` (stereo not drawn) [Compound 189, 3-[2-(4-Octyloxy-2-trifluoromethyl-phenyl)-morpholin-4-yl]-propionic acid hydrochloride], the melting point lay in the range of 178.5 to 180.5 °C. Also, the EC50 in data set [1] was 1580 nM. Also, in data set [2], the EC50 was 158 nM. The EC50 in data set [3] was 1580 nM.
As for `Cl.O=C(O)CCN1CCOC(c2ccc(OCc3c(Cl)cccc3Cl)cc2)C1` (single isomer, unassigned; (-)) [Compound 34b, (−)-3-{2-[4-(2,6-Dichloro-benzyloxy)-phenyl]-morpholin-4-yl}-propionic acid hydrochloride], the EC50 in data set [2] is 31.6 nM; in data set [3] it was more than 3160 nM. Besides, the “reversal of the age-related cognitive decline (percentage of alternation in T-maze)” value in data set [4] is recorded as 100%.
`COc1cc(C2CN(CCC(=O)O)CCO2)ccc1OCc1ccccc1C(F)(F)F.Cl` (stereo not drawn) [Compound 66, 3-{2-[3-Methoxy-4-(2-trifluoromethyl-benzyloxy)-phenyl]-morpholin-4-yl}-propionic acid hydrochloride] showed a melting point of 170 to 172 °C. In addition, in data set [1], the EC50 is more than 10000 nM. Moreover, in data set [2], the EC50 was 631 nM.
For `Cc1cccc2c1C(Oc1ccc(C3CN(CCC(=O)O)CCO3)cc1)CC2` (stereo not drawn) [Compound 220, 3-{2-[4-(7-Methyl-indan-1-yloxy)-phenyl]-morpholin-4-yl}-propionic acid], in that order: 134 to 139 °C, 251 nM and 158 nM.
On to `Clc1cccc(Cl)c1COc1ccc(C2CN(CCc3nn[nH]n3)CCO2)cc1` (stereo not drawn) [Compound 228, 2-[4-(2,6-Dichloro-benzyloxy)-phenyl]-4-[2-(2H-tetrazol-5-yl)-ethyl]-morpholine hydrochloride], for which the EC50 in data set [1] is more than 10000 nM; in data set [2] it was 158 nM; in data set [3] it was more than 3160 nM.
Take `Cl.O=C(O)CCN1CCOC(c2ccc(OCc3c(Cl)cccc3Cl)cc2F)C1` (stereo not drawn) [Compound 179, 3-{2-[4-(2,6-Dichloro-benzyloxy)-2-fluoro-phenyl]-morpholin-4-yl}-propionic acid hydrochloride]: the melting point fell in the range of 174.5 to 178 °C. Moreover, in data set [1], the EC50 is more than 10000 nM. Moreover, in data set [2], the EC50 was 126 nM. In addition, in data set [3], the EC50 is more than 3160 nM.
As to `Cc1cc(OCc2c(Cl)cccc2Cl)ccc1C1CN(CCC(=O)O)CCO1` (stereo not drawn) [Compound 130, 3-{2-[4-(2,6-Dichloro-benzyloxy)-2-methyl-phenyl]-morpholin-4-yl}-propionic acid trifluoroacetic acid salt], the EC50 in data set [1] was more than 31600 nM; in data set [2] it was 79.4 nM; in data set [3], more than 3160 nM.
`CCCCCCCCOc1cccc(C2CN(CCC(=O)O)CCO2)c1.Cl` (stereo not drawn) [Compound 231, 3-[2-(3-Octyloxy-phenyl)-morpholin-4-yl]-propionic acid hydrochloride]: the melting point was 218 to 220 °C. Also, in data set [1], the EC50 was more than 10000 nM. Moreover, the EC50 in data set [2] was 251 nM.
With `CCCCCCCCOc1ccc(C2CN(CCC(=O)O)CCO2)cc1` (stereo not drawn) [Compound 41, 3-(2-(4-Octyloxy-phenyl)-morpholin-4-yl)-propionic acid hydro-chloride], the EC50 in data set [1] was 2510 nM; in data set [2], 251 nM; in data set [3] it was more than 3160 nM.
For the compound `O=C(O)CCN1CCOC(c2ccc(OCc3c(Cl)cccc3Cl)c(C(F)(F)F)c2)C1` (stereo not drawn) [Compound 131, 3-{2-[4-(2,6-Dichloro-benzyloxy)-3-trifluoromethyl-phenyl]-morpholin-4-yl}-propionic acid trifluoroacetic acid salt], the figures for the EC50 in data set [1] and in data set [2] were more than 10000 nM and 1000 nM, respectively.
For `Cc1cc(OCc2cccc(Oc3ccccc3)c2)ccc1C1CN(CCC(=O)O)CCO1` (stereo not drawn) [Compound 92, 3-{2-[2-Methyl-4-(3-phenoxy-benzyloxy)-phenyl]-morpholin-4-yl}-propionic acid], in that order: more than 10000 nM and 5010 nM.
For `O=C(O)CCN1CCOC(c2ccc(OCc3c(Cl)cccc3C(F)(F)F)cc2)C1` (stereo not drawn) [Compound 153, 3-{2-[4-(2-Chloro-6-trifluoromethyl-benzyloxy)-phenyl]-morpholin-4-yl}-propionic acid hydrochloride], the results for the EC50 in data set [1], in data set [2] and in data set [3] were more than 10000 nM, 100 nM and more than 3160 nM, respectively.

The values above are taken from patent US9273017B2, “(Thio)morpholine derivatives as S1P modulators” (ABBVIE BAHAMAS LIMITED, priority 2009, dated 2016).
